Columns and labels:
[1] = TFVDP stability in blood spiked without stabilizers (degradation by phosphatases); type: in vitro ADME; settings: degrades to TFVMP and TFV
Experimental: A series of experiments was conducted to evaluate this degradation by phosphatases and counteract it. TFVDP only (1 or 2 µg/mL) was added to blood or plasma; 50 µL aliquots were extracted in the presence of isotope-labeled internal standards, and the formation of TFV and […] was monitored, together with TFVDP degradation. […] The extent of the phenomenon is illustrated in Figure 3. The first attempt to reduce phosphatases activity was performing all the sample preparation procedures on ice bath. No significant improvement was observed.
Figure 3 Extracted ion chromatograms overlay (A) recorded on the MRM transitions of TFV (B), TFVMP (C) and TFVDP (D) and their corresponding deuterated internal standards in an extracted sample (as described in paragraph 3.5). Blood sample diluted 1:5 with water and spiked with 520 ng/mL TFVDP in a non-stabilized sample (left) and with phosphatases inhibition (right). High peaks of TFMP were observed only after a short time (30 min) at room temperature without enzyme inhibition.

[2] = design: method as in PMID 21118913, PMID 30137238, PMID 25065857; settings: in red blood cells (RBC); cited from earlier work
[3] = Validation stability of TFV and TFVDP in spiked whole blood and sample extracts; type: in vitro ADME; settings: for Stability, Sample extracts 24 h 10 °C: autosampler; for Stability, Sample extracts 24 h 10 °C / Stability, Blood 4 h room temp. / Stability, Blood freeze-thaw 5 cycles / Stability, Blood at −30 °C for 1 month: the values are: stability, % of nominal; for Stability, Blood at −30 °C for 1 month: blood diluted 1:5 with 1.25% ammonia
Experimental: Samples were stable for 1 month at −30 °C, for 5 freeze–thaw cycles and for 24 h at 10 °C in the autosampler. Benchtop stability was evaluated for 4 h at room temperature with blood samples spiked with TFVDP only and the results were within 96.9 and 104.714 from nominal in stabilized conditions, while in the absence of the phosphatase inhibitor the degradation was, on average, 85% at all tested concentrations. Calibration curves were linear for both TFV and TFVDP, with correlation coefficients > 0.995.
Spiked calibration standards (CC) and quality control (QC) samples were prepared in whole blood diluted 1:5 with ultrapure water containing 1.25% ammonia (v/v). TFV concentrations were as follows: 0–0.25–1–4–16–64–128–256 ng/mL (CC) and 0.75–15–210 ng/mL (QC Low, Medium and High, respectively). TFVDP concentrations were as follows: 0–0.5–2–8–32–128–256–512 ng/mL (CC) and 1.5–30–420 ng/mL (QC Low, Medium and High, respectively).
Blank blood was frozen at −80 °C before use; therefore, cells were lysed. CCs and QCs were built in blood diluted 1 + 4 with water and alkalinized with 1.25% ammonia, for phosphatases inhibition. Patient samples received identical treatment before undergoing the sample preparation protocol, ensuring uniform composition across samples.
The method for quantifying TFV and TFVDP in whole blood was validated in terms of selectivity, linearity, accuracy, precision, limits of quantification, sample stability under storage and processing conditions, extraction recovery, and matrix effects, in accordance with the April 2022 ICH guidelines, subsequently adopted by the FDA in November 2022 [38]. The analytical ranges to be validated were chosen based upon the expected concentrations as found in literature and from in-house preliminary experiments. Matrix effects were evaluated comparing the signal of theoretical QC concentrations prepared in mobile phase (taken as 100% recovery) against those obtained after spiking blank extracts at identical concentrations. Matrix factors were calculated for each analyte, and isotope-labelled internal standards were employed to correct for residual matrix influence.

[4] = TFV and TFVDP levels in clinical samples (whole blood, plasma) of treated patients by micro-LC-MS/MS; type: in vivo; settings: patient 10, tenofovir alafenamide 25 mg, 12 to 24 h after dosing
Experimental: Blood samples were collected, with informed consent, from 11 HIV-infected patients treated with tenofovir, 12 to 24 h after dosing. Two patients (numbers 10 and 11) received tenofovir alafenamide 25 mg, the others being administered with tenofovir disoproxil fumarate 245 mg.
Blood samples were collected from HIV-positive patients at the National Institute for Infectious Diseases “Prof Dr. Matei Bals”, with the approval of the Bioethical Committee (protocol code C10242/02.10.2024, approved 18 October 2024). All patients were under treatment with anti-retroviral drugs, and sampling was performed from 12 to 24 h after dosing.
Blood samples (4 mL each) were collected using potassium EDTA (sampling tubes EDTAK3, 4.0 mL, Englober SRL, Brasov, Romania) or sodium citrate (9NC sampling tubes, BD, Plymouth, UK) as anticoagulants. Aliquots of 0.5 mL were used for plasma separation, by centrifugation (5 min, 3900 rpm), within 60 min from sampling. […] All samples were frozen at −30 °C until analyzed. […]
Analyses were performed in positive electrospray ionization mode. The chromatographic trace 288.054/176.0 was used for TFV quantification, while TFVDP was monitored on the trace 447.942/176.0. Mass transitions 288.054/135.9 and 447.942/270.0 were also used for confirmation of the measured compounds. […]

[5] = QC High (n = 4; TFV 210, TFVDP 420 ng/mL)
[6] = QC Low (n = 4; TFV 0.75, TFVDP 1.5 ng/mL)

Stability of added diphosphate metabolite in blood [1] | Degradation in the absence of the phosphatase inhibitor ([3]; 4 h at room temperature, blood spiked with TFVDP only, average at all tested concentrations) [%] | Stability, Sample extracts 24 h 10 °C ([3]; QC High (n = 4)) [%] | Stability, Blood 4 h room temp. ([3]; QC High (n = 4)) [%] | Stability, Blood freeze-thaw 5 cycles ([3]; QC High (n = 4)) [%] | Stability, Blood at −30 °C for 1 month [3, 5] [%] | Stability, Sample extracts 24 h 10 °C ([3]; QC Low (n = 4)) [%] | Stability, Blood 4 h room temp. ([3]; QC Low (n = 4)) [%] | Stability, Blood freeze-thaw 5 cycles ([3]; QC Low (n = 4)) [%] | Stability, Blood at −30 °C for 1 month [3, 6] [%] | Level in clinical sample, Blood [4] | Compound | half-life [2] [days]
unstable in blood | 85 | 94.3 | 96.9 | 95.4 | 106 | 105 | 105 | 111 | 92.5 |  | C[C@H](Cn1cnc2c(N)ncnc21)OCP(=O)(O)OP(=O)(O)OP(=O)(O)O [TFVDP, tenofovir diphosphate] | 17
 |  | 90.7 | 101 | 111 | 112 | 94.4 | 102 | 114 | 104 | BLQ | C[C@H](Cn1cnc2c(N)ncnc21)OCP(=O)(O)O [TFV, Tenofovir] | 

Source: publication PMC12195941, “Novel Micro-LC-MS/MS Method for the Quantification of Tenofovir and Its Active Metabolite Tenofovir-Diphosphate in Biological Matrices for Therapeutic Drug Monitoring” (Pharmaceuticals, 2025)
